Data from PubChem BioAssay AID192 (DTP/NCI, 2004).
Values joined by “and” are separate entries in the source; they are usually repeats but may differ in a detail not shown here. Equal entries are not always repeated. Inconclusive results and toxic doses are left out. Peptide text beside a SMILES is read from it. * marks the point of attachment. Cbz = O=C(OCc1ccccc1)*

System: BDF1 mice, B16 melanoma ip, median survival T/C
Test: NCI In Vivo Anticancer Drug Screen. Data for tumor model B16 Melanoma (intraperitoneal) in B6D2F1 (BDF1) mice
Settings: endpoint: median survival time, higher = longer survival
Outline: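 The ratio T/C compares compound-treated mice with vehicle-treated controls, using survival or tumor size as the endpoint in a transplantable tumor model.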

[1] = dose: 50.0 mg/kg/injection, schedule: Q01DX009 (ip), vehicle: saline with Tween-80
[2] = dose: 100.0 mg/kg/injection, schedule: Q01DX009 (ip), vehicle: saline with Tween-80
[3] = dose: 25.0 mg/kg/injection, schedule: Q01DX009 (ip), vehicle: saline
[4] = dose: 50.0 mg/kg/injection, schedule: Q01DX009 (ip), vehicle: saline
[5] = dose: 6.25 mg/kg/injection, schedule: Q01DX009 (ip), vehicle: saline
[6] = dose: 12.5 mg/kg/injection, schedule: Q01DX009 (ip), vehicle: saline
[7] = dose: 100.0 mg/kg/injection, schedule: Q01DX009 (ip), vehicle: Klucel (hydroxypropylcellulose) (HPC)
[8] = dose: 200.0 mg/kg/injection, schedule: Q01DX009 (ip), vehicle: Klucel (hydroxypropylcellulose) (HPC)
[9] = dose: 400.0 mg/kg/injection, schedule: Q01DX009 (ip), vehicle: Klucel (hydroxypropylcellulose) (HPC)

COc1ccc(/C=C/c2nc3ccccc3nc2/C=C/c2ccc(OC)c(OC)c2)cc1OC
T/C (dose: 6.25 mg/kg/injection, schedule: Q01DX009 (ip), vehicle: carboxymethylcellulose (CMC)): 99 % of control
T/C (dose: 12.5 mg/kg/injection, schedule: Q01DX009 (ip), vehicle: carboxymethylcellulose (CMC)): 92 % of control
T/C (dose: 25.0 mg/kg/injection, schedule: Q01DX009 (ip), vehicle: carboxymethylcellulose (CMC)): 89 % of control

CSCCC(NC(=O)C(Cc1ccccc1)NC(=O)OCc1ccccc1)C(=O)O (stereo not drawn) (Cbz-Phe-Met-OH; configuration not given here)
T/C [1]: 97 % of control
T/C [2]: 93 % of control

CN(C)CCCN1c2ccccc2Sc2cnccc21
T/C [3]: 115 % of control
T/C [4]: 93 % of control
T/C (dose: 100.0 mg/kg/injection, schedule: Q01DX009 (ip), vehicle: saline): 115 % of control

CN(C)CCC=C1c2ccccc2CCc2ccccc21
T/C (dose: 3.12 mg/kg/injection, schedule: Q01DX009 (ip), vehicle: saline): 109 % of control
T/C [5]: 117 % of control
T/C [6]: 100 % of control
T/C [3]: 102 % of control

Cc1c(C)c([N+](=O)[O-])c(Br)c(C)c1[N+](=O)[O-]
T/C (dose: 100.0 mg/kg/injection, schedule: Q04DX003 (ip), vehicle: Klucel (hydroxypropylcellulose) (HPC)): 91 % of control
T/C (dose: 200.0 mg/kg/injection, schedule: Q04DX003 (ip), vehicle: Klucel (hydroxypropylcellulose) (HPC)): 98 % of control

c1ccc(Cc2ccccc2)cc1
T/C [2]: 89 % of control

COc1cccc2c1C(=O)c1c(O)c3c(c(O)c1C2=O)C[C@@](O)(C(C)=O)C[C@@H]3OC1CC(N)C(O)C(C)O1 (some centres not stated)
T/C (dose: 0.06 mg/kg/injection, schedule: Q01DX017 (ip), vehicle: clinical formulation): 184 % of control
T/C (dose: 0.06 mg/kg/injection, schedule: Q05DX010 (ip), vehicle: clinical formulation): 160 % of control
T/C (dose: 0.12 mg/kg/injection, schedule: Q01DX009 (ip), vehicle: clinical formulation): 168 % of control
T/C (dose: 0.12 mg/kg/injection, schedule: Q01DX017 (ip), vehicle: clinical formulation): 178 % of control
T/C (dose: 0.12 mg/kg/injection, schedule: Q05DX010 (ip), vehicle: clinical formulation): 165 % of control
T/C (dose: 0.13 mg/kg/injection, schedule: Q01DX009 (ip), vehicle: water): 189 % of control
T/C (dose: 0.2 mg/kg/injection, schedule: Q01DX009 (ip), vehicle: saline): 170 % of control
T/C (dose: 0.25 mg/kg/injection, schedule: Q01DX009 (ip), vehicle: clinical formulation): 192 % of control
T/C (dose: 0.25 mg/kg/injection, schedule: Q01DX017 (ip), vehicle: clinical formulation): 226 % of control
T/C (dose: 0.25 mg/kg/injection, schedule: Q03HX008 (ip), vehicle: saline): 152 % of control
T/C (dose: 0.25 mg/kg/injection, schedule: Q04DX003 (ip), vehicle: clinical formulation): 162 % of control
T/C (dose: 0.25 mg/kg/injection, schedule: Q04DX005 (ip), vehicle: clinical formulation): 165 % of control
T/C (dose: 0.25 mg/kg/injection, schedule: Q05DX010 (ip), vehicle: clinical formulation): 237 % of control
T/C (dose: 0.39 mg/kg/injection, schedule: Q01DX009 (ip), vehicle: saline): 212 % of control
T/C (dose: 0.5 mg/kg/injection, schedule: Q01DX009 (ip), vehicle: clinical formulation): 292 % of control
T/C (dose: 0.5 mg/kg/injection, schedule: Q01DX017 (ip), vehicle: clinical formulation): 315 % of control
T/C (dose: 0.5 mg/kg/injection, schedule: Q04DX005 (ip), vehicle: clinical formulation): 215 % of control
T/C (dose: 0.5 mg/kg/injection, schedule: Q05DX010 (ip), vehicle: clinical formulation): 235 % of control
T/C (dose: 0.5 mg/kg/injection, schedule: Q11DX018 (sc), vehicle: water): 100 % of control
T/C (dose: 0.78 mg/kg/injection, schedule: Q01DX009 (ip), vehicle: saline): 238 % of control
T/C (dose: 1.0 mg/kg/injection, schedule: Q01DX001 (ip), vehicle: clinical formulation): 223 % of control
T/C (dose: 1.0 mg/kg/injection, schedule: Q01DX009 (ip), vehicle: clinical formulation): 204 % of control
T/C (dose: 1.0 mg/kg/injection, schedule: Q01DX017 (ip), vehicle: clinical formulation): 213 % of control
T/C (dose: 1.0 mg/kg/injection, schedule: Q04DX003 (ip), vehicle: clinical formulation): 217 % of control
T/C (dose: 1.0 mg/kg/injection, schedule: Q04DX005 (ip), vehicle: clinical formulation): 194 % of control
T/C (dose: 1.0 mg/kg/injection, schedule: Q05DX010 (ip), vehicle: clinical formulation): 200 % of control
T/C (dose: 1.0 mg/kg/injection, schedule: Q11DX018 (sc), vehicle: water): 111 % of control
T/C (dose: 1.5 mg/kg/injection, schedule: Q01DX001 (ip), vehicle: water): 287 % of control
T/C (dose: 1.56 mg/kg/injection, schedule: Q01DX009 (ip), vehicle: saline): 150 % of control
T/C (dose: 2.0 mg/kg/injection, schedule: Q01DX001 (ip), vehicle: clinical formulation): 204 % of control
T/C (dose: 2.0 mg/kg/injection, schedule: Q01DX009 (ip), vehicle: clinical formulation): 187 % of control
T/C (dose: 2.0 mg/kg/injection, schedule: Q04DX003 (ip), vehicle: clinical formulation): 215 % of control
T/C (dose: 2.0 mg/kg/injection, schedule: Q04DX005 (ip), vehicle: clinical formulation): 160 % of control
T/C (dose: 2.0 mg/kg/injection, schedule: Q05DX010 (ip), vehicle: clinical formulation): 110 % of control
T/C (dose: 3.0 mg/kg/injection, schedule: Q01DX001 (ip), vehicle: water): 287 % of control
T/C (dose: 4.0 mg/kg/injection, schedule: Q01DX001 (ip), vehicle: clinical formulation): 285 % of control
T/C (dose: 6.0 mg/kg/injection, schedule: Q01DX001 (ip), vehicle: water): 94 % of control and 103 % of control
T/C (dose: 7.5 mg/kg/injection, schedule: Q01DX001 (ip), vehicle: water): 107 % of control and 122 % of control
T/C (dose: 10.0 mg/kg/injection, schedule: Q01DX001 (ip), vehicle: water): 110 % of control

CNC(=O)N(C)c1cc(N(C)C)nc(OC)n1
T/C (dose: 5.0 mg/kg/injection, schedule: Q01DX009 (ip), vehicle: Klucel (hydroxypropylcellulose) (HPC)): 101 % of control
T/C (dose: 10.0 mg/kg/injection, schedule: Q01DX009 (ip), vehicle: Klucel (hydroxypropylcellulose) (HPC)): 93 % of control
T/C (dose: 20.0 mg/kg/injection, schedule: Q01DX009 (ip), vehicle: Klucel (hydroxypropylcellulose) (HPC)): 94 % of control

C/C=C/C(=O)OC(C)CCC(CC)CCCC (configuration not stated)
T/C [7]: 90 % of control
T/C [8]: 90 % of control
T/C [9]: 90 % of control

CCN(C(=O)c1ccc(C(=O)N(CC)c2ccccc2)cc1)c1ccccc1
T/C (dose: 50.0 mg/kg/injection, schedule: Q01DX009 (ip), vehicle: Klucel (hydroxypropylcellulose) (HPC)): 119 % of control
T/C [7]: 114 % of control
T/C [8]: 111 % of control

Cc1cn(C2CC3[O][Sn]([c]4ccccc4)([c]4ccccc4)[O]CC3O2)c(=O)[nH]c1=O (configuration not stated)
T/C [5]: 91 % of control
T/C [6]: 93 % of control and 117 % of control
T/C [3]: 94 % of control and 124 % of control
T/C [4]: 98 % of control

CS/C([S-])=N/[NH-].CS/C([S-])=N/[NH-].[Pd]
T/C (dose: 3.13 mg/kg/injection, schedule: Q01DX009 (ip), vehicle: saline with Tween-80): 98 % of control
T/C (dose: 6.25 mg/kg/injection, schedule: Q01DX009 (ip), vehicle: saline with Tween-80): 101 % of control
T/C (dose: 12.5 mg/kg/injection, schedule: Q01DX009 (ip), vehicle: saline with Tween-80): 99 % of control

O=C(OCCOCCOCCOC(=O)c1ccccc1)c1ccccc1
T/C [9]: 121 % of control

CCCCC(SC(CC)(C(C)=O)c1ccccc1)C(N)=O (configuration not stated)
T/C [1]: 89 % of control
T/C [2]: 108 % of control
T/C (dose: 200.0 mg/kg/injection, schedule: Q01DX009 (ip), vehicle: saline with Tween-80): 87 % of control
T/C (dose: 400.0 mg/kg/injection, schedule: Q01DX009 (ip), vehicle: saline with Tween-80): 92 % of control

CCCCNC(C)(C)C(S)c1ccc(Cl)cc1 (configuration not stated)
T/C (dose: 6.25 mg/kg/injection, schedule: Q01DX009 (ip), vehicle: Klucel (hydroxypropylcellulose) (HPC)): 102 % of control
T/C (dose: 12.5 mg/kg/injection, schedule: Q01DX009 (ip), vehicle: Klucel (hydroxypropylcellulose) (HPC)): 97 % of control
T/C (dose: 25.0 mg/kg/injection, schedule: Q01DX009 (ip), vehicle: Klucel (hydroxypropylcellulose) (HPC)): 89 % of control

CN(C)N=Nc1ccnc2c(I)cccc12
T/C (dose: 25.2 mg/kg/injection, schedule: Q01DX008 (ip), vehicle: DMSO): 92 % of control
T/C (dose: 42.0 mg/kg/injection, schedule: Q01DX008 (ip), vehicle: DMSO): 97 % of control
T/C (dose: 70.0 mg/kg/injection, schedule: Q01DX008 (ip), vehicle: DMSO): 99 % of control
T/C (dose: 116.7 mg/kg/injection, schedule: Q01DX008 (ip), vehicle: DMSO): 92 % of control
